Test results reported in patent US9085598B2, “Compounds targeting the cell invasion protein complex, their pharmaceutical compositions and methods of use thereof” (THE ROYAL INSTITUTE FOR THE ADVANCEMENT OF LEARNING/MCGILL …, priority 2011, dated 2015).

What was measured:
Test in all cases: In vitro kinase activity (Kinase-Glo luminescence)
Assay type in all cases: biochemical
FLT3 = molecular target: T1, FLT3 (Homo sapiens, UniProt P36888)
T1 construct: Human recombinant full-length kinases were incubated in kinase buffer
Protocol: (§1) Human recombinant full-length kinases were incubated in kinase buffer containing ATP and substrate (Poly Glu:Tyr) for 4 hours at room temperature with or without the presence of the compounds listed in Table 1 at various concentrations. Remaining ATP in solution was then quantified using the Kinase-Glo-Iuminescence™ kit (Promega).

PKC-α = molecular target: T2, PKC-α (Homo sapiens, UniProt P17252); conditions: Table 2
T2 construct: Human recombinant full-length kinases were incubated in kinase buffer
Protocol: as §1

CDK1/Cyclin B = molecular target: T3, CDK1/Cyclin B (Homo sapiens, UniProt P06493)
T3 construct: Human recombinant full-length kinases were incubated in kinase buffer
Protocol: as §1

IGF1R = molecular target: T4, IGF1R (Homo sapiens, UniProt P08069)
T4 construct: Human recombinant full-length kinases were incubated in kinase buffer
Protocol: as §1

RPS6KA4 = molecular target: T5, RPS6KA4 (Homo sapiens, UniProt O75676)
T5 construct: Human recombinant full-length kinases were incubated in kinase buffer
Protocol: as §1

FYN = molecular target: T6, FYN (Homo sapiens, UniProt P06241)
T6 construct: Human recombinant full-length kinases were incubated in kinase buffer
Protocol: as §1

VEGFR2 = molecular target: T7, VEGFR2 (Homo sapiens, UniProt P35968)
T7 construct: Human recombinant full-length kinases were incubated in kinase buffer
Protocol: as §1

FGFR1 = molecular target: T8, FGFR1 (Homo sapiens, UniProt P11362)
T8 construct: Human recombinant full-length kinases were incubated in kinase buffer
Protocol: as §1

FAK = molecular target: T9, FAK (Homo sapiens, UniProt Q05397); conditions: 1 μM; Table 2; read-out: % Inhibition FAK
T9 construct: Human recombinant full-length kinases were incubated in kinase buffer
Protocol: as §1

LYN = molecular target: T10, LYN (Homo sapiens, UniProt P07948)
T10 construct: Human recombinant full-length kinases were incubated in kinase buffer
T10 sequence (P07948 whole entry): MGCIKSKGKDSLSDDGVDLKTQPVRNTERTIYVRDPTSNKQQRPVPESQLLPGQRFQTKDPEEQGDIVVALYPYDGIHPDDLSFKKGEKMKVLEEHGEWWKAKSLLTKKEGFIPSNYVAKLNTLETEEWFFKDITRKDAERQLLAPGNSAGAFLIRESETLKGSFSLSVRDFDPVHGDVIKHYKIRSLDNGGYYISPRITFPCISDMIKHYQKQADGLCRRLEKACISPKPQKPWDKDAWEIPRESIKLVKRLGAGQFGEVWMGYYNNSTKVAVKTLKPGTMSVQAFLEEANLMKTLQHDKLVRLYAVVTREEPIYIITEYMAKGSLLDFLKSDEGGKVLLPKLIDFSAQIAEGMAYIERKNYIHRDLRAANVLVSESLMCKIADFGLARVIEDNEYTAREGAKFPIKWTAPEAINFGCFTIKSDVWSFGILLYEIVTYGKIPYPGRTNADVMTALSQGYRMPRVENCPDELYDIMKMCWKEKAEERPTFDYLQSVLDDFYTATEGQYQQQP
Protocol: as §1

HER2 = molecular target: T11, HER2 (Homo sapiens, UniProt P04626)
T11 construct: Human recombinant full-length kinases were incubated in kinase buffer
Protocol: as §1

PDGFR-β = molecular target: T12, PDGFR-β (Homo sapiens, UniProt P09619)
T12 construct: Human recombinant full-length kinases were incubated in kinase buffer
Protocol: as §1

EGFR = molecular target: T13, EGFR (Homo sapiens, UniProt P00533)
T13 construct: Human recombinant full-length kinases were incubated in kinase buffer
T13 sequence (P00533 25-1210): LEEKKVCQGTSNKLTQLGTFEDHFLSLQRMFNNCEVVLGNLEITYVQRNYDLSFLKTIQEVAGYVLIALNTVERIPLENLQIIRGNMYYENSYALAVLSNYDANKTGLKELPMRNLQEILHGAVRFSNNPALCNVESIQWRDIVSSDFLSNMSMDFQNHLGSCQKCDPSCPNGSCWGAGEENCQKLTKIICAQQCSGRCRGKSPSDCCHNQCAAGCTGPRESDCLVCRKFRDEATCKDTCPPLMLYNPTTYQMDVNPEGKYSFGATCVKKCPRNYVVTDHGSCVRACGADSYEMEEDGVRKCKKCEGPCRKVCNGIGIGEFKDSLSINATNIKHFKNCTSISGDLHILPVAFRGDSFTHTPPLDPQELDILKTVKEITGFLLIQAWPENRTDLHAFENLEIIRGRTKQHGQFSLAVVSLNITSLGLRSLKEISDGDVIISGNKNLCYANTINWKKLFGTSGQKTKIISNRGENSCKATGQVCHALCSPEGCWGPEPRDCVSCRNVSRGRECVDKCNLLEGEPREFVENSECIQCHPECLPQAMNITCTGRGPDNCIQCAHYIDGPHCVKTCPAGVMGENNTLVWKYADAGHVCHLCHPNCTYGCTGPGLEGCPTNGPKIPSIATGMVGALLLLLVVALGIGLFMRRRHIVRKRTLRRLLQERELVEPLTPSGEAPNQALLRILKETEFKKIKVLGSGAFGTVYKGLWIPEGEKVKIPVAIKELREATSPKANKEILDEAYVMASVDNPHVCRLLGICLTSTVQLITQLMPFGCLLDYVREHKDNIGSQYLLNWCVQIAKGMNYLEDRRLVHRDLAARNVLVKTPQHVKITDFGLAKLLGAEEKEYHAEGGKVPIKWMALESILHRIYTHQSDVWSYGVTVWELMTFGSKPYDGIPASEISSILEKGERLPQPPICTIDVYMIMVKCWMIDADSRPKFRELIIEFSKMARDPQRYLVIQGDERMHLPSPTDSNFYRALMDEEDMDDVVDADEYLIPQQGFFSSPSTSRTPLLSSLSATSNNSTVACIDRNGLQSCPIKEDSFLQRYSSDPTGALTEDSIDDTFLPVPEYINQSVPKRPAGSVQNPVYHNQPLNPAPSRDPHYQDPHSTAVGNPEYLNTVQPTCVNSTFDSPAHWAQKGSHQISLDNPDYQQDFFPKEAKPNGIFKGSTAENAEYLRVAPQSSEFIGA
Protocol: as §1

Aurora A = molecular target: T14, Aurora A (Homo sapiens, UniProt O14965)
T14 construct: Human recombinant full-length kinases were incubated in kinase buffer
Protocol: as §1

Aurora B = molecular target: T15, Aurora B (Homo sapiens, UniProt Q96GD4)
T15 construct: Human recombinant full-length kinases were incubated in kinase buffer
T15 sequence (Q96GD4 whole entry): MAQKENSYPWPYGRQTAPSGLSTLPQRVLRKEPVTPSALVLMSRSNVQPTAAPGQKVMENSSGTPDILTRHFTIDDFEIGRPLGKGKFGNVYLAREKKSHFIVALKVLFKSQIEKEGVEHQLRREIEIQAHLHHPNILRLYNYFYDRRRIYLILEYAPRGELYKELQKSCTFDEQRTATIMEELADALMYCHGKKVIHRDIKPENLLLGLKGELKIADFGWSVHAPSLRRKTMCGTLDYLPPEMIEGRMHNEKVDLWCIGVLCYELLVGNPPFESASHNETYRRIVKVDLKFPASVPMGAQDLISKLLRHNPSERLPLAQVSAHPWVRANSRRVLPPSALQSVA
Protocol: as §1

INSR = molecular target: T16, INSR (Homo sapiens, UniProt P06213)
T16 construct: Human recombinant full-length kinases were incubated in kinase buffer
Protocol: as §1

DDR1 = molecular target: T17, DDR1 (Homo sapiens, UniProt Q08345)
T17 construct: Human recombinant full-length kinases were incubated in kinase buffer
Protocol: as §1

PLK4 = molecular target: T18, PLK4 (Homo sapiens, UniProt O00444)
T18 construct: Human recombinant full-length kinases were incubated in kinase buffer
T18 sequence (O00444 whole entry): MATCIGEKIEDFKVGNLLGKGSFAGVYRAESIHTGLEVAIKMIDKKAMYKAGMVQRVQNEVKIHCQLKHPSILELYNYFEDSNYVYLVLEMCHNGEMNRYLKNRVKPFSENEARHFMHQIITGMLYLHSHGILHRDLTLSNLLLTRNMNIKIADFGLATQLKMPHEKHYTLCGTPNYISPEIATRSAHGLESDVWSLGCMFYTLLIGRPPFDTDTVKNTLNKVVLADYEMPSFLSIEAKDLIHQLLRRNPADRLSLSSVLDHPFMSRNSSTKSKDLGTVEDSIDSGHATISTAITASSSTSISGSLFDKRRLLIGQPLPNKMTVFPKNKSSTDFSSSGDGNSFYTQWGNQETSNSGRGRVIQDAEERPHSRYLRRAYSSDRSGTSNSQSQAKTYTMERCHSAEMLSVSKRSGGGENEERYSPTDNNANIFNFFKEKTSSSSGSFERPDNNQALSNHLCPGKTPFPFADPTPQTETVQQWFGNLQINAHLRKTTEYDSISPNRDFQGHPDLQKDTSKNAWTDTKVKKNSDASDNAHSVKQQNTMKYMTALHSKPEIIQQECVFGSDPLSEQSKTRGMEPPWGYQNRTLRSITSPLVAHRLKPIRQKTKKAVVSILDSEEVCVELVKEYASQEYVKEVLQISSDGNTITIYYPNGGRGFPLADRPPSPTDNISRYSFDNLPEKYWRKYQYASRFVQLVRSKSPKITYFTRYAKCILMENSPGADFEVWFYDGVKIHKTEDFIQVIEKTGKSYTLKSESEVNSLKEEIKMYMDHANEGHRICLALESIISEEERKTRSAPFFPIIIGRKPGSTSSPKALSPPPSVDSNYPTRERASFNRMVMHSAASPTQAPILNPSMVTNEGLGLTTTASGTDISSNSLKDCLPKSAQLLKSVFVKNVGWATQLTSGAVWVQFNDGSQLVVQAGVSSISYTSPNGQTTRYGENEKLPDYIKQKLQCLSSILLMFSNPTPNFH
Protocol: as §1

PAK1 = molecular target: T19, PAK1 (Homo sapiens, UniProt Q13153)
T19 construct: Human recombinant full-length kinases were incubated in kinase buffer
Protocol: as §1

IKK-ε = molecular target: T20, IKK-ε (Homo sapiens, UniProt Q14164)
T20 construct: Human recombinant full-length kinases were incubated in kinase buffer
Protocol: as §1

TIE1 = molecular target: T21, TIE1 (Homo sapiens, UniProt P35590)
T21 construct: Human recombinant full-length kinases were incubated in kinase buffer
Protocol: as §1

TRKB = molecular target: T22, TRKB (Homo sapiens, UniProt Q16620)
T22 construct: Human recombinant full-length kinases were incubated in kinase buffer
Protocol: as §1

EPHA1 = molecular target: T23, EPHA1 (Homo sapiens, UniProt P21709)
T23 construct: Human recombinant full-length kinases were incubated in kinase buffer
Protocol: as §1

AKT-1 = molecular target: T24, AKT-1 (Homo sapiens, UniProt P31749); conditions: Table 2
T24 construct: Human recombinant full-length kinases were incubated in kinase buffer
T24 sequence (P31749 whole entry): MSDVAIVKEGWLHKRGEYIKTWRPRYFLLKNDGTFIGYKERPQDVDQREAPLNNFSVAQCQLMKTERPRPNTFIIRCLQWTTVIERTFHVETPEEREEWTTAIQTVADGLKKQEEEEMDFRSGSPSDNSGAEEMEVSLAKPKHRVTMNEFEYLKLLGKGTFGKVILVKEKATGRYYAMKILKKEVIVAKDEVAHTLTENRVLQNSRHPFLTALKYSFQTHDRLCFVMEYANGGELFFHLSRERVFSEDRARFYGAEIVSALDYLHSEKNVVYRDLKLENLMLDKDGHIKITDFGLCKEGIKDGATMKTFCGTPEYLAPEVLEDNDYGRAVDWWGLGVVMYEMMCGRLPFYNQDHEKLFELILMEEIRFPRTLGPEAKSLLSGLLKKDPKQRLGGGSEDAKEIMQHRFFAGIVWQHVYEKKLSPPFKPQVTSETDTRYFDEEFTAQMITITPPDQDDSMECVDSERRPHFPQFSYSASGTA
Protocol: as §1

SYK = molecular target: T25, SYK (Homo sapiens, UniProt P43405)
T25 construct: Human recombinant full-length kinases were incubated in kinase buffer
Protocol: as §1

MET = molecular target: T26, MET (Homo sapiens, UniProt P08581)
T26 construct: Human recombinant full-length kinases were incubated in kinase buffer
Protocol: as §1

SRC = molecular target: T27, SRC (Homo sapiens, UniProt P12931)
T27 construct: Human recombinant full-length kinases were incubated in kinase buffer
Protocol: as §1

PIM1 = molecular target: T28, PIM1 (Homo sapiens, UniProt P11309)
T28 construct: Human recombinant full-length kinases were incubated in kinase buffer
Protocol: as §1

YES1 = molecular target: T29, YES1 (Homo sapiens, UniProt P07947)
T29 construct: Human recombinant full-length kinases were incubated in kinase buffer
Protocol: as §1

ABL1 = molecular target: T30, ABL1 (Homo sapiens, UniProt P00519)
T30 construct: Human recombinant full-length kinases were incubated in kinase buffer
Protocol: as §1

P38-γ = molecular target: T31, P38-γ (Homo sapiens, UniProt P53778)
T31 construct: Human recombinant full-length kinases were incubated in kinase buffer
T31 sequence (P53778 whole entry): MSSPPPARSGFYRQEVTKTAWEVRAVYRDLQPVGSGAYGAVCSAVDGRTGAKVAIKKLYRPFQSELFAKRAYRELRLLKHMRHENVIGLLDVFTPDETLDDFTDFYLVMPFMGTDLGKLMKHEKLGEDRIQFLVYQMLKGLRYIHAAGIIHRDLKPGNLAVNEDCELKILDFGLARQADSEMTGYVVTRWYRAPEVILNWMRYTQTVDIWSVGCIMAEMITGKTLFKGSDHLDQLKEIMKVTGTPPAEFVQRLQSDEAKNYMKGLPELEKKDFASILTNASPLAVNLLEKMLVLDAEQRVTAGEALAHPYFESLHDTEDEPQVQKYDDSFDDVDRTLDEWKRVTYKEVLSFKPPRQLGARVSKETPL
Protocol: as §1

SGK3 = molecular target: T32, SGK3 (Homo sapiens, UniProt Q96BR1)
T32 construct: Human recombinant full-length kinases were incubated in kinase buffer
T32 sequence (Q96BR1 whole entry): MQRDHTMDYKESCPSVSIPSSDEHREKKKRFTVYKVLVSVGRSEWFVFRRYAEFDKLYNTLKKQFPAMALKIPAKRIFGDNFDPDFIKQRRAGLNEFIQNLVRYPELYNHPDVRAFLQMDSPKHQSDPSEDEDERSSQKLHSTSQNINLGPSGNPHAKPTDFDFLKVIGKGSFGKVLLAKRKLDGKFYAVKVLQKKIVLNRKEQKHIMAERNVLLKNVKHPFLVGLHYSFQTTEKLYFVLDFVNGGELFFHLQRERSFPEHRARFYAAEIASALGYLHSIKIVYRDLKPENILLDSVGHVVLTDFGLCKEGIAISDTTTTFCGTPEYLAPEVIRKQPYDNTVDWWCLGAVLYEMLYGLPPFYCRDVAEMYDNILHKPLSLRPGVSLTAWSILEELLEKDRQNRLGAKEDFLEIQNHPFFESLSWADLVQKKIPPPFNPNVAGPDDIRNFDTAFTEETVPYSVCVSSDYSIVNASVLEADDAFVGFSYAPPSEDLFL
Protocol: as §1

## O=c1c2ccccc2[se]n1-c1ccccc1 [Ebselen, reference compound]
FLT3
  inhibition at 1 µM: 0%
PKC-α
  inhibition at 1 µM: 25%
CDK1/Cyclin B
  inhibition at 1 µM: 0%
IGF1R
  inhibition at 1 µM: 0%
RPS6KA4
  inhibition at 1 µM: 0%
FYN
  inhibition at 1 µM: 0%
VEGFR2
  inhibition at 1 µM: 0%
FGFR1
  inhibition at 1 µM: 0%
FAK
  inhibition at 1 µM: 1%
LYN
  inhibition at 1 µM: 0%
HER2
  inhibition at 1 µM: 0%
PDGFR-β
  inhibition at 1 µM: 0%
EGFR
  inhibition at 1 µM: 0%
Aurora A
  inhibition at 1 µM: 0%
Aurora B
  inhibition at 1 µM: 0%
INSR
  inhibition at 1 µM: 0%
DDR1
  inhibition at 1 µM: 0%
PLK4
  inhibition at 1 µM: 0%
PAK1
  inhibition at 1 µM: 0%
IKK-ε
  inhibition at 1 µM: 0%
TIE1
  inhibition at 1 µM: 0%
TRKB
  inhibition at 1 µM: 0%
EPHA1
  inhibition at 1 µM: 0%
AKT-1
  inhibition at 1 µM: 22%
SYK
  inhibition at 1 µM: 0%
MET
  inhibition at 1 µM: 0%
SRC
  inhibition at 1 µM: 0%
PIM1
  inhibition at 1 µM: 0%
YES1
  inhibition at 1 µM: 0%
ABL1
  inhibition at 1 µM: 0%
P38-γ
  inhibition at 1 µM: 0%
SGK3
  inhibition at 1 µM: 0%
